Results as given in patent publication US20090215759A1, “MODULATORS FOR AMYLOID BETA” (priority 2008, published 2009).

Row | melting point [°C] | SMILES
1 | 197 to 200 | COc1cc(Nc2nccc(N3CCC(O)CC3)n2)ccc1-n1cnc(C)c1
2 | 155 to 158 | Cc1cn(-c2ccc(Nc3nc(C)cc(Cc4ccccc4)n3)cc2F)cn1
3 | 95 to 98 | Cc1cc(Cc2ccccc2)nc(Nc2ccc(-n3ccnc3CO)cc2)n1
4 | 183 to 185 | Cc1cc(Cc2ccccc2)nc(Nc2ccc(-n3cnc(C)n3)c(F)c2)n1
5 | 202 to 204 | COc1cc(Nc2nc(-c3ccc(Cl)cc3)cc(C(F)(F)F)n2)ccc1-n1cnc(C)c1
6 | 248 to 250 | COc1cc(Nc2nc(-c3ccc(-n4ccnc4)cc3)cc(C(F)(F)F)n2)ccc1-n1cnc(C)c1
7 | 252 to 254 | COc1cc(Nc2nc(-c3ccc(-n4cccn4)cc3)cc(C(F)(F)F)n2)ccc1-n1cnc(C)c1
8 | 195 to 197 | CCOC(=O)c1cnc(Nc2ccc(-n3cnc(C)c3)c(OC)c2)nc1-c1cccc(C#N)c1
9 | 84 to 86 | CCOC(=O)C(c1ccccc1)c1nc(Nc2ccc(-n3cnc(C)c3)c(OC)c2)ncc1-c1ccccc1 (centres unmarked)
10 | 232 to 234 | CCOC(=O)c1cnc(Nc2ccc(-n3cnc(C)c3)c(F)c2)nc1-c1ccc(Cl)cc1
11 | 202 to 204 | COc1cc(Nc2nccc(-c3ccc(Cl)cc3)n2)ccc1-n1cnc(C)c1
12 | 204 to 206 | COc1cc(Nc2nccc(-c3cccnc3)n2)ccc1-n1cnc(C)c1
13 | 248 to 250 | Cc1cn(-c2ccc(Nc3nc(-c4ccc(Cl)cc4)cc(C(F)(F)F)n3)cc2F)cn1
14 | 219 to 221 | CCOC(=O)c1cnc(Nc2ccc(-n3cnc(C)c3)c(F)c2)nc1-c1ccc(C(F)(F)F)cc1
15 | 196 to 197 | Cc1cn(-c2ccc(Nc3nccc(-c4ccc(C(F)(F)F)cc4)n3)cc2F)cn1
16 | 216 to 218 | CCOC(=O)c1cnc(Nc2ccc(-n3cnc(C)c3)c(OC)c2)nc1-c1ccc(Cl)cc1 [Example 28, Ethyl 4-(4-chloro-phenyl)-2-[3-methoxy-4-(4-methyl-imidazol-1-yl)-phenylamino]-pyrimidine-5-carboxylate]
17 | 138 to 141 | COc1cc(Nc2nc(C)cc(Cc3ccccc3)n2)ccc1-c1cnc(C)s1 [Example 209, (4-Benzyl-6-methyl-pyrimidin-2-yl)-[3-methoxy-4-(2-methyl-thiazol-5-yl)-phenyl]-amine]
